Experimental data from patent US11564969B2, “Immunorhelin compounds for intracellular infections” (ISR IMMUNE SYSTEM REGULATION HOLDING AB (PUBL), priority 2017, dated 2023).
Square brackets hold non-standard residues; d marks the D form. Peptide text beside a SMILES is read from it. * marks the point of attachment. dHis(τ-Bn) = N[C@H](Cc1cn(Cc2ccccc2)cn1)C(=O)O; d2Nal = N[C@H](Cc1ccc2ccccc2c1)C(=O)O; pGlu = O=C1CC[C@@H](C(=O)O)N1; tBu = CC(C)(C)*

Legend:
GnRHR = biological target: T1, GnRHR (Homo sapiens, UniProt P30968); conditions: 1000.0
T1 sequence (P30968 1-328): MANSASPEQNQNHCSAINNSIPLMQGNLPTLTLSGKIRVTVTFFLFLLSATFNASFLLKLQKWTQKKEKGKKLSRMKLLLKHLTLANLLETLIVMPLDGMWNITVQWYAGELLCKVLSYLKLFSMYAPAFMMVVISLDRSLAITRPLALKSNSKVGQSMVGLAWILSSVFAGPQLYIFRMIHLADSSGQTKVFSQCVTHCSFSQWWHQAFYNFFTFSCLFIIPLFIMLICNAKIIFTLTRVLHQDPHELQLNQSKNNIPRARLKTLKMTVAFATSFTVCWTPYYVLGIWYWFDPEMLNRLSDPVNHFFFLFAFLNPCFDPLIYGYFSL

[1] = Solubility analysis in PBS (Analysis Method B); assay type: physicochemical; conditions: pH 7.4
Protocol: The solubility of compounds of the invention was tested as described in the general methods. Solubility was then graded according to a rating between 1 to 5, where 1 is most soluble and 5 is least soluble.

CD4+ and CD8+ T cells = assay: MHC class I expression on T cells after stimulation of PBMCs, flow cytometry; assay type: cell-based, human; conditions: PBMCs from healthy donor, with IL-2, 72 hours
Protocol: FIG. 1: Expression of MHC class I after stimulation of T cells with increasing concentrations of GnRH II. PBMCs from a healthy donor was stimulated with GnRH II and IL-2 for 72 hours. Data points represent mean fluorescent intensity of MCH class I expression on CD4^+ T cells (blue triangles) or CD8^+ T cells (black squares) measured with flow cytometry. Human peripheral blood mononuclear cells (PBMCs) were purified from healthy donors with Ficoll-Hypaque density centrifugation. Cells were cultured in RPMI-1640 medium (Invitrogen) supplemented with 10% fetal bovine serum, 100 μg/mL ampicilin and 100 μg/mL streptomycin for 24-72 hours in 37° C., 5% CO2. Cells were stimulated with a compound according to the invention and analysed for expression of cell specific surface markers and […] (monoclonal antibodies from BD Pharmingen) with flow cytomtery.

SMILES | GNRHR Stimulation at 1 μM (GnRHR) [percentage] | Solubility grading [1] | MHC class I expression on T cells (CD4+ and CD8+ T cells)
CCNC(=O)[C@@H]1CCCN1C(=O)[C@H](CCCNC(=N)N)NC(=O)[C@H](CC(C)C)NC(=O)[C@@H](Cc1cn(Cc2ccccc2)cn1)NC(=O)[C@H](Cc1c[nH]cn1)NC(=O)[C@H](CO)NC(=O)[C@H](Cc1c[nH]c2ccccc12)NC(=O)[C@H](Cc1c[nH]cn1)NC(=O)[C@@H]1CCC(=O)N1 [Compound 56, pGlu-His-Trp-Ser-His-D-Bhi-Leu-Arg-Pro-NHEt] ([pGlu]HWSH[dHis(τ-Bn)]LRP-NHEt) | 96 | 1 | –
N=C(N)NCCC[C@H](NC(=O)[C@H](Cc1c[nH]c2ccccc12)NC(=O)[C@@H](Cc1ccc2ccccc2c1)NC(=O)[C@H](Cc1ccc(O)cc1)NC(=O)[C@H](CO)NC(=O)[C@H](Cc1c[nH]c2ccccc12)NC(=O)[C@H](Cc1c[nH]cn1)NC(=O)[C@@H]1CCC(=O)N1)C(=O)N1CCC[C@H]1C(=O)NCC(N)=O [Compound 24, pGlu-His-Trp-Ser-Tyr-D-Nal-Trp-Arg-Pro-Gly-amide] ([pGlu]HWSY[d2Nal]WRPG-NH2) | 87 | 5 | –
N=C(N)NCCC[C@H](NC(=O)[C@H](Cc1c[nH]c2ccccc12)NC(=O)[C@@H](Cc1ccc2ccccc2c1)NC(=O)[C@H](Cc1c[nH]cn1)NC(=O)[C@H](CO)NC(=O)[C@H](Cc1c[nH]c2ccccc12)NC(=O)[C@H](Cc1c[nH]cn1)NC(=O)[C@@H]1CCC(=O)N1)C(=O)N1CCC[C@H]1C(=O)NCC(N)=O [Compound 27, pGlu-His-Trp-Ser-His-D-Nal-Trp-Arg-Pro-Gly-amide] ([pGlu]HWSH[d2Nal]WRPG-NH2) | 108 | 1 | –
NC(=O)CNC(=O)[C@@H]1CCCN1C(=O)[C@H](Cc1ccc(O)cc1)NC(=O)[C@H](Cc1c[nH]c2ccccc12)NC(=O)CNC(=O)[C@H](Cc1c[nH]cn1)NC(=O)[C@H](CO)NC(=O)[C@H](Cc1c[nH]c2ccccc12)NC(=O)[C@H](Cc1c[nH]cn1)NC(=O)[C@@H]1CCC(=O)N1 [GnRH II] ([pGlu]HWSHGWYPG-NH2) | – | – | directly activates these cells
CCNC(=O)[C@@H]1CCCN1C(=O)[C@H](Cc1ccc(O)cc1)NC(=O)[C@H](Cc1c[nH]c2ccccc12)NC(=O)[C@@H](COC(C)(C)C)NC(=O)[C@H](Cc1c[nH]cn1)NC(=O)[C@H](CO)NC(=O)[C@H](Cc1c[nH]c2ccccc12)NC(=O)[C@H](Cc1c[nH]cn1)NC(=O)[C@@H]1CCC(=O)N1 [Compound 13, pGlu-His-Trp-Ser-His-D-Ser(tBu)-Trp-Tyr-Pro-NHEt] ([pGlu]HWSH[dS](tBu)WYP-NHEt) | 87 | 3 | –

Further lines, with some results ahead:

GNRHR Stimulation at 1 μM (GnRHR) [percentage] | Solubility grading [1] | SMILES | MHC class I expression on T cells (CD4+ and CD8+ T cells)
77 | 4 | CCNC(=O)[C@@H]1CCCN1C(=O)[C@H](Cc1ccc(O)cc1)NC(=O)[C@H](Cc1c[nH]c2ccccc12)NC(=O)[C@@H](CC(C)C)NC(=O)[C@H](Cc1ccc(O)cc1)NC(=O)[C@H](CO)NC(=O)[C@H](Cc1c[nH]c2ccccc12)NC(=O)[C@H](Cc1c[nH]cn1)NC(=O)[C@@H]1CCC(=O)N1 [Compound 49, pGlu-His-Trp-Ser-Tyr-D-Leu-Trp-Tyr-Pro-NHEt] ([pGlu]HWSY[dL]WYP-NHEt) | –
77 | 5 | CCNC(=O)[C@@H]1CCCN1C(=O)[C@H](Cc1ccc(O)cc1)NC(=O)[C@H](Cc1c[nH]c2ccccc12)NC(=O)[C@@H](Cc1cn(Cc2ccccc2)cn1)NC(=O)[C@H](Cc1ccc(O)cc1)NC(=O)[C@H](CO)NC(=O)[C@H](Cc1c[nH]c2ccccc12)NC(=O)[C@H](Cc1c[nH]cn1)NC(=O)[C@@H]1CCC(=O)N1 [Compound 62, pGlu-His-Trp-Ser-Tyr-D-Bhi-Trp-Tyr-Pro-NHEt] ([pGlu]HWSY[dHis(τ-Bn)]WYP-NHEt) | –
82 | 4 | CC(C)C[C@H](NC(=O)[C@@H](Cc1ccc2ccccc2c1)NC(=O)[C@H](Cc1ccc(O)cc1)NC(=O)[C@H](CO)NC(=O)[C@H](Cc1c[nH]c2ccccc12)NC(=O)[C@H](Cc1c[nH]cn1)NC(=O)[C@@H]1CCC(=O)N1)C(=O)N[C@@H](Cc1ccc(O)cc1)C(=O)N1CCC[C@H]1C(=O)NCC(N)=O [Compound 25, pGlu-His-Trp-Ser-Tyr-D-Nal-Leu-Tyr-Pro-Gly-amide] ([pGlu]HWSY[d2Nal]LYPG-NH2) | –
119 | 1 | CCNC(=O)[C@@H]1CCCN1C(=O)[C@H](CCCNC(=N)N)NC(=O)[C@H](Cc1c[nH]c2ccccc12)NC(=O)[C@@H](CC(C)C)NC(=O)[C@H](Cc1c[nH]cn1)NC(=O)[C@H](CO)NC(=O)[C@H](Cc1c[nH]c2ccccc12)NC(=O)[C@H](Cc1c[nH]cn1)NC(=O)[C@@H]1CCC(=O)N1 [Compound 47, pGlu-His-Trp-Ser-His-D-Leu-Trp-Arg-Pro-NHEt] ([pGlu]HWSH[dL]WRP-NHEt) | –
83 | 5 | N=C(N)NCCC[C@H](NC(=O)[C@H](Cc1c[nH]c2ccccc12)NC(=O)[C@@H](Cc1c[nH]c2ccccc12)NC(=O)[C@H](Cc1ccc(O)cc1)NC(=O)[C@H](CO)NC(=O)[C@H](Cc1c[nH]c2ccccc12)NC(=O)[C@H](Cc1c[nH]cn1)NC(=O)[C@@H]1CCC(=O)N1)C(=O)N1CCC[C@H]1C(=O)NCC(N)=O [Compound 66, pGlu-His-Trp-Ser-Tyr-D-Trp-Trp-Arg-Pro-Gly-amide] ([pGlu]HWSY[dW]WRPG-NH2) | –
